Here are results for 20 compounds from ChEMBL document CHEMBL3603817, “Potent and Selective Inhibitors of Histone Deacetylase-3 Containing Chiral Oxazoline Capping Groups and a N-(2-Aminophenyl)-benzamide Binding Unit” (J Med Chem, 2015).

Values after ≈ are worked out from the molar mass of the structure shown.

What all share (assay type): physicochemical
Series [1] is described as follows: Lipophilicity, log P of the compound. The conditions noted are these: octanol/water.
Series [2] can be described thus: Distribution coefficient, log D of the compound by HPLC method. The conditions noted are these: octanol/water.
The nature of series [3]: Solubility by CLND method.

A word on the logP: it is a log measure of how a compound divides between an organic and an aqueous phase. Read a high logP as a more lipophilic compound. Broadly, the logD is the decadic logarithm of the distribution of all forms, ionised or not, between an organic phase and buffer at a given pH. Higher therefore signals higher lipophilicity. Broadly, the kinetic solubility is the concentration staying in solution when a stock, usually in DMSO, is diluted into the medium. `Nc1ccccc1NC(=O)c1ccc(CNC2=NC(c3cccc(F)c3)CO2)cc1` (stereo not drawn): the logP in series [1] was found to be 3.84. The compound also had a log distribution coefficient (logD) in series [2] of 3.42. Also, the solubility (kinetic) in series [3] is ≥ 0.131 mg/mL.

As for `Nc1ccccc1NC(=O)c1ccc(CNC2=N[C@@H](c3ccc(O)cc3)CO2)cc1`, in series [1], the lipophilicity (logP) came out at 2.13. Further, the log distribution coefficient (logD) in series [2] came out at 1.74. The kinetic solubility in series [3] is ≥ 0.13 mg/mL.

Turning to `Nc1ccccc1NC(=O)c1ccc(CNC2=NC[C@@H](c3ccccc3)O2)cc1`, the log partition coefficient (logP) in series [1] was found to be 3.58. The pH-dependent lipophilicity (logD) in series [2] came out at 2.79. Besides, the kinetic solubility in series [3] was found to be 0.098 mg/mL (≈ 254 µM).

`Nc1ccccc1NC(=O)c1ccc(CNC2=NC(c3ccc(F)cc3)CO2)cc1` (stereo not drawn) registered a logP in series [1] of 3.97. Further, in series [3], the kinetic solubility was 0.147 mg/mL (≈ 363 µM).

`Nc1ccccc1NC(=O)c1ccc(CSC2=N[C@@H](Cc3ccccc3)CO2)cc1`: in series [1], the logP came out at 5.67. The logD in series [2] was determined as 5.41. The solubility (kinetic) in series [3] turned out to be 0.031 mg/mL (≈ 74.2 µM).

The compound `Nc1ccccc1NC(=O)c1ccc(CSC2=N[C@@H](c3ccccc3)CN2)cc1` yielded a logP in series [1] of 4.31. Besides, the logD in series [2] stood at 3.49. The kinetic solubility in series [3] turned out to be 0.116 mg/mL (≈ 288 µM).

For the compound `Nc1ccccc1NC(=O)c1ccc(CNc2nccc(-c3cccnc3)n2)cc1` [MOCETINOSTAT], the log partition coefficient (logP) in series [1] was 2.96. Moreover, the log distribution coefficient (logD) in series [2] is 2.96. The same compound gave a solubility (kinetic) in series [3] of 0.107 mg/mL (≈ 270 µM).

Compound `Nc1ccccc1NC(=O)c1ccc(CNC2=N[C@@H](c3ccccc3)CN2)cc1` showed a logP in series [1] of 3.46. This compound also returned a logD in series [2] of 1.92. For the same compound, the kinetic solubility in series [3] was ≥ 0.07 mg/mL.

For the compound `Nc1ccccc1NC(=O)c1ccc(CNC2=N[C@@H](c3ccccc3)CO2)cc1`, in series [1], the logP was 3.74. In series [2], this compound had a logD of 3.1.

In the case of `Nc1ccccc1NC(=O)c1ccc(CNC2=NC(c3ccc(C(F)(F)F)cc3)CO2)cc1` (stereo not drawn), the lipophilicity (logP) in series [1] was 4.72. The logD in series [2] is 4.54. In addition, the solubility (kinetic) in series [3] was 0.008 mg/mL (≈ 17.6 µM).

As for `Nc1ccccc1NC(=O)c1ccc(CNC2=N[C@H](Cc3c[nH]cn3)CO2)cc1`, the logP in series [1] was found to be 0.93. The compound also came in with a logD in series [2] of 0.89. In addition, the solubility (kinetic) in series [3] is ≥ 0.158 mg/mL.

The compound `Nc1ccccc1NC(=O)c1ccc(CNC2=N[C@H](c3ccccc3)CO2)cc1` had a lipophilicity (logP) in series [1] of 3.76. Further, the logD in series [2] turned out to be 3.09. Moreover, the kinetic solubility in series [3] is ≥ 0.151 mg/mL.

The compound `Nc1ccccc1NC(=O)c1ccc(CSC2=N[C@@H](c3cccnc3)CO2)cc1` gave a logP in series [1] of 3.32. The compound also gave a logD in series [2] of 3.19. Further, the kinetic solubility in series [3] came out at 0.108 mg/mL (≈ 267 µM).

`Nc1ccccc1NC(=O)c1ccc(CNC2=N[C@@H](c3ccccc3)[C@H](c3ccccc3)O2)cc1` had a logP in series [1] of 5.41. For the same compound, the logD in series [2] is 5.01. Besides, in series [3], the solubility (kinetic) was 0.006 mg/mL (≈ 13 µM).

As to `Nc1ccccc1NC(=O)c1ccc(CNC2=N[C@@H](Cc3ccccc3)CO2)cc1`, the logP in series [1] stood at 4.15. Moreover, the logD in series [2] is 2.86. Also, the kinetic solubility in series [3] was ≥ 0.148 mg/mL.

`Nc1ccccc1NC(=O)c1ccc(CNC2=N[C@H](c3ccccc3)[C@H](c3ccccc3)O2)cc1` gave a lipophilicity (logP) in series [1] of 5.01. For the same compound, the logD in series [2] was found to be 4.54. The kinetic solubility in series [3] is 0.073 mg/mL (≈ 158 µM).

Turning to `Nc1ccccc1NC(=O)c1ccc(CNC2=N[C@@H](Cc3c[nH]cn3)CO2)cc1`, in series [1], the lipophilicity (logP) was 0.95. In addition, the log distribution coefficient (logD) in series [2] was found to be 0.9. In addition, the kinetic solubility in series [3] is ≥ 0.142 mg/mL.

`Nc1ccccc1NC(=O)c1ccc(CNC2=N[C@@H](c3cccnc3)CO2)cc1` came in with a lipophilicity (logP) in series [1] of 1.78. The logD in series [2] came out at 1.71. For the same compound, the kinetic solubility in series [3] is ≥ 0.124 mg/mL.

For the compound `Nc1ccccc1NC(=O)c1ccc(CNC2=NC[C@H](c3ccccc3)O2)cc1`, the logP in series [1] was 3.84. In series [2], this compound had a log distribution coefficient (logD) of 2.99. For the same compound, in series [3], the kinetic solubility was determined as 0.077 mg/mL (≈ 199 µM).

In series [1], `Nc1ccccc1NC(=O)c1ccc(CNC2=NC(c3ccccc3)(c3ccccc3)CO2)cc1` gave a logP of 5.59. For the same compound, the logD in series [2] is 5.29. Besides, in series [3], the solubility (kinetic) amounted to 0.007 mg/mL (≈ 15.1 µM).
